Laboratory results published in US20250042925A1, “Improved Compositions and Methods for Targeting Mitochondria in Cancer Cells” (The Medical College of Wisconsin, Inc., priority 2021, published 2025).

Key:
HPSC cells = assay: TMRE retention (mitochondrial depolarization) by flow cytometry in HPSC; assay type: cell-based, human; conditions: HPSC cell line, 1 hour treatment
Description: (§1) AsPC-1 and HPSC cells were serum-starved overnight, loaded with tetramethylrhodamine ethyl ester (TMRE), and treated for 1 hour with the indicated concentrations of MMe or pCF3-MMe or, as the vehicle control, DMSO. Mitochondrial TMRE retention was measured by flow cytometry. Representative histograms of n=3 of TMRE fluorescence in AsPC-1 (FIG. 4A) and HPSC (FIG. 4B) in response to treatment. […] Total cellular ATP levels were analyzed using a luminescent ATP detection assay of KPC1242 cells treated with MMe (0.7 μM) or pCF3-MMe (3 μM), and changes in ATP levels were assayed (FIG. 4E). Representatives immunoblot analyses of phosphorylated and total AMPK levels (FIG. 4F) and densitometric quantification (FIG. 4G) in KPC1242 cells treated with MMe (0.7 μM) or pCF3-MMe (3 μM). […] Values are mean±SD from 3 biological replicates. Statistical differences in a, c, and e were determined using Student's t-test (*, p<0.05; **, p<0.01; ***, p<0.001, ns: not significant).
(§2) TPP-conjugated compounds are known to effectively target the mitochondria of cancer cells. Thus, the efficacy of pCF3-MMe to effectively target the mitochondria of cancer cells was tested and compared to normal cells using tetramethylrhodamine ethyl ester perchlorate (TMRE), a cell-permeant, positively-charged dye that accumulates in active mitochondria, and is released into the cytosol upon mitochondrial damage. […]

KPC1242 cells = assay: Seahorse Cell Mito Stress Test (oxygen consumption rate); assay type: cell-based, murine; conditions: 24 hours treatment, increasing concentrations
Description: To determine if the newly synthesized variants retain this functional specificity, further studies were conducted to determine if pCF3-MMe effectively impacts mitochondrial function and/or induces bioenergetic stress. KPC1242 cells were treated for 24 hours with increasing concentrations of MMe or pCF3-MMe, and oxygen consumption rate (OCR) was measured as a surrogate for oxidative phosphorylation linked mitochondrial respiration.
Cells were plated to Seahorse XF96 cell culture microplates at 20,000 cells/well. Stock compounds in DMSO were diluted in RPMI medium to a final concentration in […] volume, incubated at 37° C. for 24 hours, centrifuged at 200×g for 2 minutes, and conditioned medium removed and replaced with serum-free RPMI […]. Oxygen consumption (OCR) and extracellular flux (ECAR) were measured after injections of oligomycin (1 mg/mL), dinitrophenol […], rotenone […], and antimycin A […]. Analysis was performed by normalizing OCR and ECAR readouts to vehicle controls. Complex I and II activity were analyzed after permeabilization of the cells.

[1] = system: HPNE and HPSC non-transformed cells; assay: Cell growth (confluence) of normal non-transformed cells; assay type: cell-based, human; conditions: for sensitivity of normal non-transformed cells compared to cancer cells: HPNE, HPSC versus cancer cells
Description: To test the off-target effects of the refined MMe analogs on normal non-transformed cells, the growth of HPNE cells (FIGS. 11A, 11D, and 11G), used as a surrogate for normal pancreatic ductal epithelium, or normal stromal HPSC cells (FIGS. 11B, 11E, and 11H) were measured in increasing concentrations of MMe, pCF3-MMe, or mCF3-MMe and compared to the vehicle control.
Murine pancreatic cancer cells KPC1242 (David Tuveson, Cold Spring Harbor), human pancreatic cancer cells, Panc-1 (ATCC: CRL-1469), human breast cancer cells MDA-MB-231 (ATCC: CRM-HTB-26), and human pancreatic stellate cells HPSC (Rosa F. Hwang, MD Anderson cancer) were all cultured in DMEM (Gibco ThermoFisher Scientific, Waltham, MA, Cat #11965084) containing 10% v/v fetal bovine serum (Omega Scientific, Inc., Tarzana, CA, Cat #FB-12). Human pancreatic cancer cells AsPC-1 (ATCC: CRL-1682), human ovarian cancer cells OVCAR-8 (NIH: CVCL-1629), and human ovarian cancer cells OVCAR-4 (NIH: CVCL-1627) were all cultured in DMEM (Gibco, Cat #22400089) containing 10% v/v fetal bovine serum (Omega Scientific). Human colon cancer cells HCT-116 (ATCC: CCL-247) were cultured in McCoy's 5A Modified Medium (Gibco, Cat #16600082) containing 10% v/v fetal bovine serum (Omega Scientific). Human pancreatic duct epithelial cells HPNE (ATCC: CRL-4023) were cultured in DMEM and 200 mM L-Glutamine and 7.5% w/v NaCO3 further supplemented with 15% v/v fetal bovine serum, M3-Base A (Incell, San Antonio, TX), 1M D-Glucose (Gibco Cat #J60067.EQE), 100 μg/mL human EGF (Gibco Cat #PHG0313) and 10 mg/mL puromycin (ThermoFisher, Cat #A1113802).

[2] = system: AMP-Activated Protein Kinase (AMPK); assay: Immunoblot of AMPK Thr172 phosphorylation; assay type: cell-based, murine; conditions: 0.7 μM MMe or 3 μM pCF3-MMe
Description: The functional consequence of inhibiting mitochondria complex I and subsequently OXPHOS is a reduction of overall ATP levels in the cell. The ability of MMe to reduce ATP levels was previously reported in numerous cancer cell types. Thus, further studies were conducted to explore if pCF3-MMe retained similar properties. […] Cells, including cancer cells, must maintain a high ATP:ADP ratio to maintain cellular functions and survival. Moreover, AMP levels rise whenever the ATP:ADP ratio decreases, and an increase in the AMP:ATP ratio signals an energetic crisis in the cell. […]
Cells were serum-starved for 24 hours followed by compound treatment for 24 hours before lysis in RIPA buffer composed of 50 mM Tris-HCl, pH 7.4, 150 mM NaCl, 0.25% v/v sodium deoxycholate, 1% v/v Nonidet P-40, 0.1% v/v SDS, 1 mM EDTA, 10 mM sodium orthovanadate, 40 mM 0-glycerol phosphate, 20 mM sodium fluoride, and protease inhibitors cocktail set III (Millipore Sigma, Cat #539134). […] Primary antibodies were detected by incubating with secondary horseradish peroxidase-conjugated antibody (Cytiva, Amersham ECL rabbit IgG-HRP, Cat #NA9340). Densitometric quantification of phosphorylated, total or actin protein levels was measured using chemiluminescence and calculated using Alpha View Software.

AsPC-1 cells = assay: TMRE retention (mitochondrial depolarization) by flow cytometry in AsPC-1; assay type: cell-based, human; conditions: AsPC-1, 1 hour treatment
Description: as §1, §2

Row | SMILES | TMRE accumulation within the mitochondria (HPSC cells) | basal OCR, ATP-linked respiration, and maximal respiratory capacity (KPC1242 cells) | reduction in toxicity to normal cells compared to MMe [1] [fold] | sensitivity of normal non-transformed cells compared to cancer cells [1] | toxic effects towards non-transformed HPNE and HPSC-1 cells ([1]; compared to the parent MMe and the mCF3-MMe analog) | AMPK activation (Thr172 phosphorylation) [2] | TMRE accumulation within the mitochondria (AsPC-1 cells)
1 | N=C(N)NC(=N)NCCCCCCCCCC[P+](c1ccc(C(F)(F)F)cc1)(c1ccc(C(F)(F)F)cc1)c1ccc(C(F)(F)F)cc1.[Br-] [pCF3-MMe, (10-(3-carbamimidoylguanidino)decyl)tris(4-(trifluoromethyl)phenyl)phosphonium bromide] | did not affect TMRE accumulation | concentration-dependent decrease | ~10 | more than a log less sensitive | least toxic effects | significant increase in AMPK activation | significantly reduced TMRE accumulation
2 | N=C(N)NC(=N)NCCCCCCCCCC[P+](c1ccccc1)(c1ccccc1)c1ccccc1.[Br-] [MMe, 10-[(carbamimidamidomethanimidoyl)amino]decyl-triphenylphosphonium bromide, reference compound] | did not affect TMRE accumulation | concentration-dependent decrease | – | more than a log less sensitive | – | significant increase in AMPK activation | significantly reduced TMRE accumulation
